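Where inhibition never reached the appropriate level, the endpoint shown equals the highest concentration tested. Otherwise, values were interpolated linearly from a five-concentration, 48-hour dose response in 96-well plates. TGI marks complete inhibition of growth.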
Experiments:
Assay in all cases: NCI-60 cell line screen, 48 h
SW-620 colon = tested on: SW-620 colon
OVCAR-5 ovarian = tested on: OVCAR-5 ovarian
HCT-116 colon = tested on: HCT-116 colon
T-47D breast = tested on: T-47D breast
HL-60(TB) leukemia = tested on: HL-60(TB) leukemia
M19-MEL melanoma = tested on: M19-MEL melanoma
SK-MEL-28 melanoma = tested on: SK-MEL-28 melanoma
COLO 205 colon = tested on: COLO 205 colon
SF-295 CNS = tested on: SF-295 CNS
A498 renal = tested on: A498 renal
OVCAR-4 ovarian = tested on: OVCAR-4 ovarian
KM12 colon = tested on: KM12 colon
NCI-H226 lung = tested on: NCI-H226 lung
NCI-H23 lung = tested on: NCI-H23 lung
DMS 114 small cell lung = tested on: DMS 114 small cell lung
EKVX NSCLC = tested on: EKVX NSCLC
SNB-19 CNS = tested on: SNB-19 CNS
786-0 renal = tested on: 786-0 renal
HOP-62 NSCLC = tested on: HOP-62 NSCLC
BT-549 breast = tested on: BT-549 breast
HT29 colon = tested on: HT29 colon
OVCAR-3 ovarian = tested on: OVCAR-3 ovarian
DU-145 prostate = tested on: DU-145 prostate
HCC-2998 colon = tested on: HCC-2998 colon
KM20L2 colon = tested on: KM20L2 colon
MDA-N = tested on: MDA-N
CAKI-1 renal = tested on: CAKI-1 renal
CCRF-CEM leukemia = tested on: CCRF-CEM leukemia
PC-3 prostate = tested on: PC-3 prostate
NCI-H460 lung = tested on: NCI-H460 lung
MDA-MB-435 = tested on: MDA-MB-435
DMS 273 small cell lung = tested on: DMS 273 small cell lung
A549 NSCLC = tested on: A549 NSCLC
MALME-3M melanoma = tested on: MALME-3M melanoma
SR leukemia = tested on: SR leukemia
SNB-75 CNS = tested on: SNB-75 CNS
MOLT-4 leukemia = tested on: MOLT-4 leukemia
M14 melanoma = tested on: M14 melanoma
SN12C renal = tested on: SN12C renal
SNB-78 CNS = tested on: SNB-78 CNS
UO-31 renal = tested on: UO-31 renal
IGROV1 ovarian = tested on: IGROV1 ovarian
SK-MEL-2 melanoma = tested on: SK-MEL-2 melanoma
RPMI-8226 leukemia = tested on: RPMI-8226 leukemia
SK-MEL-5 melanoma = tested on: SK-MEL-5 melanoma
OVCAR-8 ovarian = tested on: OVCAR-8 ovarian
HS 578T breast = tested on: HS 578T breast
UACC-257 melanoma = tested on: UACC-257 melanoma
MDA-MB-231 breast = tested on: MDA-MB-231 breast
HOP-92 NSCLC = tested on: HOP-92 NSCLC
NCI/ADR-RES ovarian = tested on: NCI/ADR-RES ovarian
U251 CNS = tested on: U251 CNS
SK-OV-3 ovarian = tested on: SK-OV-3 ovarian
RXF 393 renal = tested on: RXF 393 renal
UACC-62 melanoma = tested on: UACC-62 melanoma
RXF-631 renal = tested on: RXF-631 renal
LOX IMVI melanoma = tested on: LOX IMVI melanoma
NCI-H522 lung = tested on: NCI-H522 lung
LXFL 529 NSCLC = tested on: LXFL 529 NSCLC
MCF7 breast = tested on: MCF7 breast
DLD-1 colon = tested on: DLD-1 colon
SF-268 CNS = tested on: SF-268 CNS
K-562 leukemia = tested on: K-562 leukemia
ACHN renal = tested on: ACHN renal
TK-10 renal = tested on: TK-10 renal
HCT-15 colon = tested on: HCT-15 colon
SF-539 CNS = tested on: SF-539 CNS
HOP-18 NSCLC = tested on: HOP-18 NSCLC
XF 498 CNS = tested on: XF 498 CNS

O=C1C(c2cnc3ccccc3n2)=C(O)c2ccccc21
TGI (SW-620 colon): > 56.2 µM
TGI (OVCAR-5 ovarian): > 100 µM
TGI (HCT-116 colon): > 100 µM
TGI (T-47D breast): > 100 µM
TGI (HL-60(TB) leukemia): > 88.5 µM
TGI (M19-MEL melanoma): > 100 µM
TGI (SK-MEL-28 melanoma): > 100 µM
TGI (COLO 205 colon): > 56.2 µM
TGI (SF-295 CNS): > 88.1 µM
TGI (A498 renal): > 100 µM
TGI (OVCAR-4 ovarian): > 100 µM
TGI (KM12 colon): > 41.1 µM
TGI (NCI-H226 lung): > 100 µM
TGI (NCI-H23 lung): > 100 µM
TGI (DMS 114 small cell lung): > 100 µM
TGI (EKVX NSCLC): > 100 µM
TGI (SNB-19 CNS): > 100 µM
TGI (786-0 renal): > 100 µM
TGI (HOP-62 NSCLC): > 100 µM
TGI (BT-549 breast): > 100 µM
TGI (HT29 colon): > 100 µM
TGI (OVCAR-3 ovarian): > 100 µM
TGI (DU-145 prostate): > 100 µM
TGI (HCC-2998 colon): > 100 µM
TGI (KM20L2 colon): > 100 µM
TGI (MDA-N): > 100 µM
TGI (CAKI-1 renal): > 100 µM
TGI (CCRF-CEM leukemia): > 100 µM
TGI (PC-3 prostate): > 85.7 µM
TGI (NCI-H460 lung): > 100 µM
TGI (MDA-MB-435): > 100 µM
TGI (DMS 273 small cell lung): > 100 µM
TGI (A549 NSCLC): > 100 µM
TGI (MALME-3M melanoma): > 100 µM
TGI (SR leukemia): > 100 µM
TGI (SNB-75 CNS): 79.9 µM
TGI (MOLT-4 leukemia): > 100 µM
TGI (M14 melanoma): > 100 µM
TGI (SN12C renal): > 100 µM
TGI (SNB-78 CNS): > 100 µM
TGI (UO-31 renal): > 100 µM
TGI (IGROV1 ovarian): > 100 µM
TGI (SK-MEL-2 melanoma): > 100 µM
TGI (RPMI-8226 leukemia): > 100 µM
TGI (SK-MEL-5 melanoma): > 100 µM
TGI (OVCAR-8 ovarian): > 100 µM
TGI (HS 578T breast): > 100 µM
TGI (UACC-257 melanoma): > 95.9 µM
TGI (MDA-MB-231 breast): > 100 µM
TGI (HOP-92 NSCLC): > 100 µM
TGI (NCI/ADR-RES ovarian): > 100 µM
TGI (U251 CNS): > 100 µM
TGI (SK-OV-3 ovarian): > 46.4 µM
TGI (RXF 393 renal): 36.1 µM
TGI (UACC-62 melanoma): > 100 µM
TGI (RXF-631 renal): > 100 µM
TGI (LOX IMVI melanoma): > 61.5 µM
TGI (NCI-H522 lung): > 100 µM
TGI (LXFL 529 NSCLC): > 100 µM
TGI (MCF7 breast): > 100 µM
TGI (DLD-1 colon): > 100 µM
TGI (SF-268 CNS): > 100 µM
TGI (K-562 leukemia): > 100 µM
TGI (ACHN renal): > 100 µM
TGI (TK-10 renal): > 100 µM
TGI (HCT-15 colon): 9.75 µM
TGI (SF-539 CNS): > 100 µM

COc1cc2c(cc1OC)[C@@H](Nc1ccc(F)cc1)C1COC(=O)[C@@H]1C2c1cc(OC)c(O)c(OC)c1 (stereo not given in full)
TGI (SW-620 colon): > 38.5 µM
TGI (OVCAR-5 ovarian): > 100 µM
TGI (HCT-116 colon): > 100 µM
TGI (HL-60(TB) leukemia): 0.626 µM
TGI (M19-MEL melanoma): > 100 µM
TGI (SK-MEL-28 melanoma): > 100 µM
TGI (COLO 205 colon): 33.3 µM
TGI (SF-295 CNS): 6.28 µM
TGI (A498 renal): 7.78 µM
TGI (OVCAR-4 ovarian): > 85.8 µM
TGI (KM12 colon): > 64.5 µM
TGI (NCI-H226 lung): 1.64 µM
TGI (NCI-H23 lung): 18.6 µM
TGI (DMS 114 small cell lung): 10.4 µM
TGI (EKVX NSCLC): > 100 µM
TGI (HOP-18 NSCLC): > 100 µM
TGI (SNB-19 CNS): > 100 µM
TGI (786-0 renal): 2.51 µM
TGI (HOP-62 NSCLC): 2.49 µM
TGI (HT29 colon): > 58.3 µM
TGI (OVCAR-3 ovarian): > 100 µM
TGI (HCC-2998 colon): 9.9 µM
TGI (KM20L2 colon): > 54.2 µM
TGI (CAKI-1 renal): 3.76 µM
TGI (CCRF-CEM leukemia): 0.846 µM
TGI (NCI-H460 lung): 2.16 µM
TGI (XF 498 CNS): > 24.7 µM
TGI (DMS 273 small cell lung): 8.41 µM
TGI (A549 NSCLC): 15 µM
TGI (MALME-3M melanoma): > 88.8 µM
TGI (SR leukemia): 0.282 µM
TGI (SNB-75 CNS): > 48 µM
TGI (MOLT-4 leukemia): 0.21 µM
TGI (M14 melanoma): 10.5 µM
TGI (SN12C renal): 13.7 µM
TGI (SNB-78 CNS): 97.5 µM
TGI (UO-31 renal): 15.4 µM
TGI (IGROV1 ovarian): > 100 µM
TGI (SK-MEL-2 melanoma): > 60.9 µM
TGI (RPMI-8226 leukemia): 2.45 µM
TGI (SK-MEL-5 melanoma): 23.2 µM
TGI (OVCAR-8 ovarian): > 38.8 µM
TGI (UACC-257 melanoma): > 79.6 µM
TGI (U251 CNS): 4.03 µM
TGI (SK-OV-3 ovarian): 7 µM
TGI (RXF 393 renal): 71.8 µM
TGI (UACC-62 melanoma): 19.9 µM
TGI (RXF-631 renal): > 82.7 µM
TGI (LOX IMVI melanoma): > 43.4 µM
TGI (NCI-H522 lung): 18.9 µM
TGI (LXFL 529 NSCLC): > 100 µM
TGI (DLD-1 colon): 40.5 µM
TGI (SF-268 CNS): > 67.1 µM
TGI (K-562 leukemia): 11.8 µM
TGI (ACHN renal): 2.49 µM
TGI (TK-10 renal): 63 µM
TGI (HCT-15 colon): > 32.1 µM
TGI (SF-539 CNS): 4.26 µM

Source: PubChem BioAssay (NCI)
